Test: Wettability of EGMBE compared with alternative solvents/blends
Type: physicochemical
Conditions: not given

| Structure (SMILES) | wettability, Mean (°) |
| --- | --- |
| CC1(C)OCC(CO)O1 (stereo not shown) [Augeo SL 191] | 50.5 |
| CCCCOCCOCCO [Butyl Carbitol, diethylene glycol butyl ether] | 50.8 |
| CCCCOCCO [EGMBE, ethyleneglycolmonobutyl ether] | 45.0 |
| CCCCOCC(C)O (stereo not shown) [Dowanol, propylene glycol n-butyl ether] | 29.8 |

The remaining lines, values ahead:

| wettability, Mean (°) | Structure (SMILES) |
| --- | --- |
| 109.2 | O [Water] |
| 48.9 | COC(=O)C(C)CCC(=O)N(C)C (stereo not shown) [Polarclean] |

Test: Surface tension by the ring method (Du Nouy method)
Type: physicochemical
Conditions: undiluted solvent, about 50 milliliters sample
Method: Surface Tension: Referring generally to Table 2, interfacial tension is measured for each test solvent or solvent blend for EGMBE-replacement. No further dilution is performed on the solvent prior to measurement. Interfacial tension was measured using about 50 milliliters sample by the ring method (Du Nouy method).

| ST (surface tension) [mN/m] | Structure (SMILES) |
| --- | --- |
| 31.9988 | CC1(C)OCC(CO)O1 (stereo not shown) [Augeo SL 191] |
| 33.871 | COC(=O)C(C)CCC(=O)N(C)C (stereo not shown) [Polarclean] |
| 26.3757 | CCCCOCCO [EGMBE, ethyleneglycolmonobutyl ether] |

Test: Miscibility test with common oilfield solvents (Tables 3-5)
Type: physicochemical
Parameters: key: S = separate; M = miscible
Conditions: 50/50 volume per volume
Method: For each test solvent, it is blended with a common solvent at 50/50 volume per volume ratio. It is shaken vigorously for about a minute and let stand for about 5 mins. A complete miscibility is recorded if there is no formation of layers. Formation of turbid mixture or multiple layers is recorded as immiscible or separate.

| Structure (SMILES) | Solubility in Alpha Olefin C1618 | Solubility in Brines (Forties FW) | Solubility in D-Limonene | Solubility in Dodecane (to mimic Kerosen) | Solubility in Exxsol D100 | Solubility in Solvesso 150 ND | Solubility in Water | Solubility in isoparrafin | Solubility in isopropanol | Solubility in toluene |
| --- | --- | --- | --- | --- | --- | --- | --- | --- | --- | --- |
| CC1(C)OCC(CO)O1 (stereo not shown) [Augeo SL 191] | S | M | M | S | S | M | M | S | M | M |
| CCCCOCC(C)O (stereo not shown) [Dowanol, propylene glycol n-butyl ether] | M | S | M | M | M | M | S | M | M | M |

Further lines, results first:

| Solubility in Alpha Olefin C1618 | Solubility in Brines (Forties FW) | Solubility in D-Limonene | Solubility in Dodecane (to mimic Kerosen) | Solubility in Exxsol D100 | Solubility in Solvesso 150 ND | Solubility in Water | Solubility in isoparrafin | Solubility in isopropanol | Solubility in toluene | Structure (SMILES) |
| --- | --- | --- | --- | --- | --- | --- | --- | --- | --- | --- |
| M | M | M | M | M | M | M | M | M | M | CC(C)O [IPA, isopropyl alcohol] |
| S | M | M | S | S | M | M | S | M | M | COC(=O)C(C)CCC(=O)N(C)C (stereo not shown) [Polarclean] |

Same assay, conditions: 50/50 volume per volume

| Structure (SMILES) | Solubility in xylene |
| --- | --- |
| CC1(C)OCC(CO)O1 (stereo not shown) [Augeo SL 191] | M |
| CCCCOCC(C)O (stereo not shown) [Dowanol, propylene glycol n-butyl ether] | M |

Results, then the compound that gave them:

| Solubility in xylene | Structure (SMILES) |
| --- | --- |
| M | CC(C)O [IPA, isopropyl alcohol] |
| M | COC(=O)C(C)CCC(=O)N(C)C (stereo not shown) [Polarclean] |

Same assay, conditions: 50/50 volume per volume, shaken about a minute, let stand about 5 mins

| Structure (SMILES) | Solubility in Crude oil |
| --- | --- |
| CC1(C)OCC(CO)O1 (stereo not shown) [Augeo SL 191] | S |
| CCCCOCC(C)O (stereo not shown) [Dowanol, propylene glycol n-butyl ether] | M |

Other lines, results leading:

| Solubility in Crude oil | Structure (SMILES) |
| --- | --- |
| M | CC(C)O [IPA, isopropyl alcohol] |
| S | COC(=O)C(C)CCC(=O)N(C)C (stereo not shown) [Polarclean] |

Test: Blends miscible in water and in mud solvents (Table 6)
Type: physicochemical
Conditions: 50/50 wt, room temperature
Method: Miscibility Test: Referring generally to Tables 4-6, the test solvent or solvent blend for EGMBE-replacement is mixed with common solvents used in oilfield industries to determine miscibility. […] It is shaken vigorously for about a minute and let stand for about 5 mins. A complete miscibility is recorded if there is no formation of layers. Formation of turbid mixture or multiple layers is recorded as immiscible or separate.

| Miscibility in Alpha Olefin C1618 | Miscibility in D-Limonene | Miscibility in Exxsol D100 | Miscibility in Isopar L | Miscibility in Water | Miscibility in xylene | Structure (SMILES) |
| --- | --- | --- | --- | --- | --- | --- |
| miscible | miscible | miscible | miscible | miscible | miscible | CCCCOCCO [EGMBE, ethyleneglycolmonobutyl ether] |

Test: Miscibility of alkyldimethylamides as stated in the text
Type: physicochemical
Conditions: not given

| miscibility [%] | Structure (SMILES) |
| --- | --- |
| 0.43 | CCCCCCCC(=O)N(C)C [N,N-dimethyloctanamide] |

From patent US10633579B2, “Use of environmentally friendly solvents to replace glycol-based solvents” (RHODIA OPERATIONS, priority 2011, dated 2020)
